pIC50: −log10 of the molar value. Active and inactive are the calls of the source. The rule behind the calls is not given here.
Key:
[1] = target: T1, Vascular endothelial growth factor receptor 1 (Homo sapiens, UniProt P17948)
[2] = target: Epidermal growth factor receptor (Homo sapiens, UniProt P00533)
[3] = target: T2, Vascular endothelial growth factor receptor 2 (Homo sapiens, UniProt P35968)
[4] = target: T3, Platelet-derived growth factor receptor beta (Homo sapiens, UniProt P09619); test: Inhibition of PDGFBB-induced PDGFRbeta autophosphorylation in human SF539 cells incubated for 60 mins prior to PDGFBB-induction measured after 10 mins by phosphotyrosine ELISA; assay type: cell-based, SF-539
T3 sequence (P09619 whole entry): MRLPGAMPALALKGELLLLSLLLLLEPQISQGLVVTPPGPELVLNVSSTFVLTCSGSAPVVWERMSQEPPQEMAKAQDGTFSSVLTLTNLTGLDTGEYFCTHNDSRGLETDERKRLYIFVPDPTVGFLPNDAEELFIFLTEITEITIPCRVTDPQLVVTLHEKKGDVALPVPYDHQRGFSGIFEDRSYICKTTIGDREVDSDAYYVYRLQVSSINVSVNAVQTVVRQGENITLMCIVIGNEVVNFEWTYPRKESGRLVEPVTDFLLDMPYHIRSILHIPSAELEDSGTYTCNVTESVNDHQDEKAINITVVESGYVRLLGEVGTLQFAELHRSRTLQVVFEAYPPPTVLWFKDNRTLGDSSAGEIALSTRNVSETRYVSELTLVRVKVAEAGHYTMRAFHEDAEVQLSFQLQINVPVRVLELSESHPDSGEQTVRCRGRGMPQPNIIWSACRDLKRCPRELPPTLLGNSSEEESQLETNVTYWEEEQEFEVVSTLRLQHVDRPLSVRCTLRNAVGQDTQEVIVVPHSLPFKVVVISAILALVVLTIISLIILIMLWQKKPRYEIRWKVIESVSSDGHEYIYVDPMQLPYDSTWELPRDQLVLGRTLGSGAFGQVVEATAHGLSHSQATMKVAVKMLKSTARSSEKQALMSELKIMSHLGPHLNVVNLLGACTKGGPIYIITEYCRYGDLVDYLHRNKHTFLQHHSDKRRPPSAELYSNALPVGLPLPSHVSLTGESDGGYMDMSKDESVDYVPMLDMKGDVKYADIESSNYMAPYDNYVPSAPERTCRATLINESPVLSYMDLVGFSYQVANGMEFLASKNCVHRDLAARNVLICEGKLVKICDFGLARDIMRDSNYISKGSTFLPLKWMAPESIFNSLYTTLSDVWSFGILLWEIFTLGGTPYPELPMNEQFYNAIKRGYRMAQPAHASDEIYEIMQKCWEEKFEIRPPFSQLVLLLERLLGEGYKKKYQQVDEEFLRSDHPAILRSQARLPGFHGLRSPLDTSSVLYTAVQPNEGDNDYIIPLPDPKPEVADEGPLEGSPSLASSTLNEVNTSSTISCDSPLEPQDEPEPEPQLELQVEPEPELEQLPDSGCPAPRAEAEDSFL

[5] = target: T1, Vascular endothelial growth factor receptor 1; remark: listed apart in the source
[6] = target: T2, Vascular endothelial growth factor receptor 2; remark: listed apart in the source
[7] = target: T3, Platelet-derived growth factor receptor beta
Mus musculus = test: (§1) Toxicity in NCr nu/nu mouse assessed as body weight loss administered for 3 days per week measured after 6 weeks; assay type: organism-based; settings: in vivo, 1008 h
COLO 205 [8] = test: Antiangiogenic activity in human COLO205 cells xenografted in athymic NIH-II mouse at 10 mg/kg, ip administered 3 days per week by hematoxylin and eosin staining relative to control; assay type: functional, organism-based; set-up: dose 10 mg/kg
COLO 205 [9] = test: Antitumor activity against human COLO205 cells xenografted in athymic NIH-II mouse assessed as decrease in tumor growth rate at 10 mg/kg, ip administered 3 days per week relative to control; assay type: functional, organism-based; set-up: dose 10 mg/kg
COLO 205 [10] = test: Antimetastatic activity against human COLO205 cells xenografted in athymic NIH-II mouse at 10 mg/kg, ip administered for 3 days per week by hematoxylin and eosin staining; assay type: functional, organism-based; set-up: dose 10 mg/kg
COLO 205 [11] = test: Antimetastatic activity against human COLO205 cells xenografted in athymic NIH-II mouse at 35 mg/kg, ip administered for 3 days per week by hematoxylin and eosin staining; assay type: functional, organism-based; set-up: dose 35 mg/kg
[12] = as §1; assay type: organism-based; settings: NCr nu/nu, in vivo
COLO 205 [13] = test: Antitumor activity against human COLO205 cells xenografted in athymic NIH-II mouse assessed as decrease in tumor growth rate at 35 mg/kg, ip administered 3 days per week relative to control; assay type: functional, organism-based; set-up: dose 35 mg/kg
COLO 205 [14] = test: Antiangiogenic activity in human COLO205 cells xenografted in athymic NIH-II mouse at 35 mg/kg, ip administered 3 days per week by hematoxylin and eosin staining relative to control; assay type: functional, organism-based; set-up: dose 35 mg/kg

T2 sequence (P35968 whole entry): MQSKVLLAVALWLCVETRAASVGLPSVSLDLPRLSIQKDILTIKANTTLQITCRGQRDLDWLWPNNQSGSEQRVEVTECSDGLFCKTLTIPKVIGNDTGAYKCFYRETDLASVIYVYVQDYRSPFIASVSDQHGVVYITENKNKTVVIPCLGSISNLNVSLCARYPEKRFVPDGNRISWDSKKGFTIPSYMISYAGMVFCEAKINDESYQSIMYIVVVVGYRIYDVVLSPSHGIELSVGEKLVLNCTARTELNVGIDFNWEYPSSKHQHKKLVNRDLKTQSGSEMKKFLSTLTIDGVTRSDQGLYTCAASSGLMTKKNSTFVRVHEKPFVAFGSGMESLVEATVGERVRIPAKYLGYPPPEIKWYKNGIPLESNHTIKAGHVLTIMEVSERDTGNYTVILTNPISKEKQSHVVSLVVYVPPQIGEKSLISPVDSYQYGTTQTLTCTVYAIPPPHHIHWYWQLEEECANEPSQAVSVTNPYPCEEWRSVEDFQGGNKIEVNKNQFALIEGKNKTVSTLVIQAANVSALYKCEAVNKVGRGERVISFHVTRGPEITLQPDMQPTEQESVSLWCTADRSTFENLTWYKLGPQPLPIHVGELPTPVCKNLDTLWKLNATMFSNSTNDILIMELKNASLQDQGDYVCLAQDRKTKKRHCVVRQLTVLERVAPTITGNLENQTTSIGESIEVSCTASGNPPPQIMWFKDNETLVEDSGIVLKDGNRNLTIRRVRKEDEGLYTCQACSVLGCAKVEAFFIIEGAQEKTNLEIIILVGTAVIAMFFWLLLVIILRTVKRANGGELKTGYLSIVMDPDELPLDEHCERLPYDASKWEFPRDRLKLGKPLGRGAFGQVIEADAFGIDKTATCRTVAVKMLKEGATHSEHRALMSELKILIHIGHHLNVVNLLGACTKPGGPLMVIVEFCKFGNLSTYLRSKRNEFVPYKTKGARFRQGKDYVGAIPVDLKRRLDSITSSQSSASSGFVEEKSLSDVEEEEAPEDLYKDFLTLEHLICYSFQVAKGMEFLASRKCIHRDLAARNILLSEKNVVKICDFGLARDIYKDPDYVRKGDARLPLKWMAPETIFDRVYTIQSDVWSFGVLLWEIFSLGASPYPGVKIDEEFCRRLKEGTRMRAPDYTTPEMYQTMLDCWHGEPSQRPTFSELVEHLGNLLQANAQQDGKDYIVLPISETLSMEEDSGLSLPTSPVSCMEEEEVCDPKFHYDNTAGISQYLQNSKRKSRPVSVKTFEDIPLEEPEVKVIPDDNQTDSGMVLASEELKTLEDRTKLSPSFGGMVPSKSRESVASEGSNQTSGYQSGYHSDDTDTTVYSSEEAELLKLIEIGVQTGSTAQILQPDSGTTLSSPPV
Chain of Epidermal growth factor receptor (P00533 whole entry): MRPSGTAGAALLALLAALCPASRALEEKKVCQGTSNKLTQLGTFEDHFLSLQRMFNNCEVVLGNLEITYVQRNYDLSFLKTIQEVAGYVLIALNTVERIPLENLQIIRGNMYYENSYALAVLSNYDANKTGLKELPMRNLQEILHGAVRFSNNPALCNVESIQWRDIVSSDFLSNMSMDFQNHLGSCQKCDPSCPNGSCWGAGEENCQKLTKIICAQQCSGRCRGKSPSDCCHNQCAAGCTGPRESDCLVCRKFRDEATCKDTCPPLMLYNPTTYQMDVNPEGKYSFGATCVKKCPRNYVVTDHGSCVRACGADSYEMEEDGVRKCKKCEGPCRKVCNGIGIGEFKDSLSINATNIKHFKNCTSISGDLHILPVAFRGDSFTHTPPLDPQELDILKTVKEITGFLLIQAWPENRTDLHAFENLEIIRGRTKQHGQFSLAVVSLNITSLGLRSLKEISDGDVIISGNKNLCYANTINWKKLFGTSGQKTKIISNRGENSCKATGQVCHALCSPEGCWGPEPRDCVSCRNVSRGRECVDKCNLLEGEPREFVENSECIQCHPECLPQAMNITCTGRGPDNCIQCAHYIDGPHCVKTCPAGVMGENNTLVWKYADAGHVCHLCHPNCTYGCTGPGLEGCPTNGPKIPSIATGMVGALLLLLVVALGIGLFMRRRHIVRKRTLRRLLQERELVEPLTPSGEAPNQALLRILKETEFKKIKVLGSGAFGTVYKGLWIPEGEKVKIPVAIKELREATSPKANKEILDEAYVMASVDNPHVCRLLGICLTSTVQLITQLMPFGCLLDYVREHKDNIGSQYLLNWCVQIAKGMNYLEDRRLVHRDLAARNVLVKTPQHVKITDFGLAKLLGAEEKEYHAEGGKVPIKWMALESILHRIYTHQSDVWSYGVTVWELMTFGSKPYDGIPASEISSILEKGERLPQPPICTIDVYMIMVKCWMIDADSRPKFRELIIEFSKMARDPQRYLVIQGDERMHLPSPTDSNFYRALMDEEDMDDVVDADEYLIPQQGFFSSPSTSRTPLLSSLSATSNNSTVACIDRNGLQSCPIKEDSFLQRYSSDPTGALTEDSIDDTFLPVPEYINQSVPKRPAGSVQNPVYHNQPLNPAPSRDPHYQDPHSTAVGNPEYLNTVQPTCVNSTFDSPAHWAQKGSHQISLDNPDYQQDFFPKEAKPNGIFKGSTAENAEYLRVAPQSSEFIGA
T1 sequence (P17948 whole entry): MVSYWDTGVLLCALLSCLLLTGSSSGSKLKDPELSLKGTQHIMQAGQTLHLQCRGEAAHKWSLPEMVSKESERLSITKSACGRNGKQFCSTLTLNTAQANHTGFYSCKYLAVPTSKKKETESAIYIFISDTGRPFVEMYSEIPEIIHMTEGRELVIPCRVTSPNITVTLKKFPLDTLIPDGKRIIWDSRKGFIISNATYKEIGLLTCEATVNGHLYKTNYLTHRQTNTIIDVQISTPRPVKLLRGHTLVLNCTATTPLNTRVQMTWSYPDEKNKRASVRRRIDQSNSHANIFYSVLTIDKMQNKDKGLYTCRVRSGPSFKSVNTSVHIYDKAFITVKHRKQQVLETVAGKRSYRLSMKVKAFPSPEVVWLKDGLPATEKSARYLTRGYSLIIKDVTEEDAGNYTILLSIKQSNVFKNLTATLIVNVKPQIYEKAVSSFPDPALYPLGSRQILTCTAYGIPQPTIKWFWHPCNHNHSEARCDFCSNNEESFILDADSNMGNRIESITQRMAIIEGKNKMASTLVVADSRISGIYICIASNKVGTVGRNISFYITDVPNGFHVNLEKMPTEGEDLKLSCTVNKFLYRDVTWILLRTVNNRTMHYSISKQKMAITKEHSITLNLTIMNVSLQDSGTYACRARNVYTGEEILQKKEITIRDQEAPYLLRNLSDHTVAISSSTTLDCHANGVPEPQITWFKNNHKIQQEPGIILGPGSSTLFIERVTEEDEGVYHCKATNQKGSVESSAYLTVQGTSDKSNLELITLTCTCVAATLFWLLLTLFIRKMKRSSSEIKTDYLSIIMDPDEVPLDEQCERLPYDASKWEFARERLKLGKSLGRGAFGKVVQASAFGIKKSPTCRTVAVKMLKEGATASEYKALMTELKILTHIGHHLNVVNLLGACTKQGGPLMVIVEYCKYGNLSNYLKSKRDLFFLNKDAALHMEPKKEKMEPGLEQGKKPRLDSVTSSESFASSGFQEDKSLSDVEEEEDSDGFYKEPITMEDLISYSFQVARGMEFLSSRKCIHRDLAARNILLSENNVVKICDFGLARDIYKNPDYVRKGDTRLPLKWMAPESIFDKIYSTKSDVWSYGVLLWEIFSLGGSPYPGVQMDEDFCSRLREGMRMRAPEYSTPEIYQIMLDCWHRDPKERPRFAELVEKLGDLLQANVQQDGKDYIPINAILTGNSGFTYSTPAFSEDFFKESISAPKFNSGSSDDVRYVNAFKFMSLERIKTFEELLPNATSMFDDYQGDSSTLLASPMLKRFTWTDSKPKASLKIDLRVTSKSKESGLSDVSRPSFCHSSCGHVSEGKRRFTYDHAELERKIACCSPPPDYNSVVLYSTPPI

COc1ccc(OC)c(Cn2ccc3c(Nc4cccc(Br)c4)nc(N)nc32)c1
pIC50 [1]: < 3.70
pIC50 [2]: 4.16
pIC50 [3]: < 3.70

Nc1nc(Nc2cccc(Br)c2)c2ccn(Cc3ccc(Cl)c(Cl)c3)c2n1
pIC50 [1]: 3.93
pIC50 [4]: 3.64
pIC50 [2]: < 3.70
pIC50 [3]: 4.19

Nc1nc(Nc2cccc(Br)c2)c2cc(Cc3ccc(Cl)cc3)[nH]c2n1
pIC50 [5]: 4.37
pIC50 [6]: 5.08
pIC50 [7]: < 4.30

Nc1nc(Nc2cccc(Br)c2)c2cc(Cc3ccc(Cl)c(Cl)c3)[nH]c2n1
pIC50 [7]: < 4.30

Nc1nc(Nc2cccc(Br)c2)c2ccn(Cc3cccc4ccccc34)c2n1
pIC50 [1]: 3.82
pIC50 [4]: 3.89
pIC50 [2]: < 3.70
pIC50 [3]: 4.83

Nc1nc(Nc2cccc(Br)c2)c2ccn(Cc3ccc4ccccc4c3)c2n1
pIC50 [1]: 4.29
pIC50 [4]: 3.67
pIC50 [2]: < 3.70
pIC50 [3]: 4.64

Nc1nc(Nc2cccc(Br)c2)c2ccn(Cc3ccc(Cl)cc3)c2n1
pIC50 [1]: 4.10
pIC50 [4]: < 3.30
pIC50 [2]: 4.00
pIC50 [3]: 4.19

Cc1ccccc1Cn1ccc2c(Nc3cccc(Br)c3)nc(N)nc21
pIC50 [1]: 3.89
pIC50 [4]: 3.80
pIC50 [2]: 3.95
pIC50 [3]: 3.95

Cc1[nH]c(/C=C2\C(=O)Nc3ccccc32)c(C)c1CCC(=O)O [ORANTINIB]
MTD (Mus musculus): 10 mg/kg
Activity (COLO 205 [8]): Active
TGI (COLO 205 [9]): Active
Activity (COLO 205 [10]): inactive

Nc1nc(Nc2cccc(Br)c2)c2ccn(Cc3ccccc3Cl)c2n1
Activity (COLO 205 [11]): Active
pIC50 [1]: 3.90
MTD at 1008 h [12]: 35 mg/kg
pIC50 [4]: 5.82
TGI (COLO 205 [13]): Active
Activity (COLO 205 [14]): Active
pIC50 [2]: < 3.70
pIC50 [3]: 4.75

Nc1nc(Nc2cccc(Br)c2)c2ccn(Cc3ccccc3)c2n1
pIC50 [1]: 4.00
pIC50 [4]: < 3.30
pIC50 [2]: 3.78
pIC50 [3]: 4.62

COc1cc(Cn2ccc3c(Nc4cccc(Br)c4)nc(N)nc32)cc(OC)c1OC
pIC50 [1]: 3.81
pIC50 [4]: 5.74
pIC50 [2]: < 3.70
pIC50 [3]: 4.59

Nc1nc(Nc2cccc(Br)c2)c2ccn(Cc3ccc(Cl)cc3Cl)c2n1
pIC50 [1]: 3.86
pIC50 [4]: 4.47
pIC50 [2]: < 3.70
pIC50 [3]: < 3.70

Nc1nc(Nc2cccc(Br)c2)c2ccn(Cc3ccc(-c4ccccc4)cc3)c2n1
pIC50 [1]: < 3.70
pIC50 [4]: 3.89
pIC50 [2]: < 3.70
pIC50 [3]: 4.64
